Source: patent US20220273703A1, “NRF2 ACTIVATION FOR TREATMENT OF NEPHROGENIC DIABETES INSIPIDUS” (University Of Pittsburgh-Of The Commonwealth System Of …, priority 2019, published 2022)
Where two headings read alike, the source gives them in different places.

Experiments:
Nrf2 [1] = test: 10-nitro-9(E)-octadec-9-enoic acid in nephrogenic diabetes insipidus; details: in vivo
Description: The pharmacologic activation of Nrf2 with CDDO-Me provided motivation to evaluate the viability of 10-nitro-9(E)-octadec-9-enoic acid as an activator and potential API for treating or preventing NDI.

Nrf2 gene target NQO1 = test: NQO1 expression (immunoblotting) in primary human renal cortical cells; assay type: cell-based
Protocol: Cell culture: Primary human distal tubule cells from human adult kidneys were isolated and cultured as previously described (Emlet et al., Am. J. Physiol.-Ren. Physiol. 312, (2017)). Confluent monolayers of cells were incubated with vehicle control, LiCl or CDDO-Im for 18 hr in serum-free hormonally defined media followed by preparation of lysates for immunoblotting.
(§1) Immunoblotting: Flash-frozen kidneys were homogenized in ice-cold Radio Immuno Precipitation Assay (RIPA) buffer containing protease and phosphatase inhibitor cocktails. Cells were treated as indicated. At time of collection, cells were washed 2× with cold PBS and lysates were prepared in 4° C. lysis buffer containing protease inhibitors. Protein was quantified by bicinchoninic acid (BCA) assay (Pierce) and sample containing 15-25 μg total cellular protein was loaded on 4-12% reducing Bis-Tris gel. Resolved proteins were transferred to 0.45 μm nitrocellulose membrane, blocked with 5% non-fat dry milk or 5% bovine serum albumin in TRIS® buffered saline (TBS)-0.1% Tween 20 for 1 hr. Membranes were incubated with primary antibody (1:1000 dilution) for 1 hr at room temperature or overnight at 4° C. Appropriate secondary antibody was applied at dilution of 1:5000 for 1 hr, membrane washed thrice in TBS-0.1% Tween-20 and membrane visualized with Clarity ECL chemiluminescence kit and ChemiDoc imager (Bio-Rad, Hercules, Calif.).
To establish a murine model of NDI, mice were administered control chow diet or 0.17% LiCl diet for 0-7 days (FIG. 1A) during which body weight, food intake (Suppl. FIG. 1) and water intake (FIG. 1B) were monitored. […]
To further test the distribution of Nrf2 and sensitivity to activation in a translational model, NQO1 expression was determined in a cell culture model systems of primary human renal cortical cells representing proximal tubule (PT) and distal tubule (DT) cell populations (Emlet et al., Am. J. Physiol. - Ren. Physiol. 312, (2017)) in the presence or absence of the Nrf2 activator CDDO-Imidazolide (CDDO-Im) (FIG. 5C-F). […]

Nrf2 [2] = test: CDDO-Me in the Li-NDI mouse model; assay type: in vivo, mice; details: 5 mg/kg I.P., q.d.
Protocol: FIGS. 9A-9J. Pharmacologic activation of Nrf2 using CDDO-Me protects against polydipsia in Li-NDI via an AQP2-independent mechanism. (A) Schematic of model of Li-NDI. All mice received normal chow for 0-3d and were randomized to vehicle or CDDO-Me (5 mg/kg I.P., q.d.). At day 3, mice were randomized to either normal chow or 0.17% LiC1 diet. (B) Animal weights as a function of time, normalized to starting weight. (C) 24 hr food intake normalized to body weight. (D) Changes in water intake as a % of baseline expressed as mean±SE (n=6-8 per group). *(p<0.05) denotes statistical significance compared to LiC1-Vehicle by two-way ANOVA with Dunnet correction for multiple comparisons. (E) Immunoblotting of whole-kidney lysates for glycosylated ( ? , 45 kDa) and non-glycosylated ( ? , 29 kDa) AQP2 and NQO1; (F-H) Densitometry showing individual values, mean±SE with statistical analysis by one-way ANOVA with Tukey correction for multiple comparisons. (I) Plasma Li concentration. […]
Water and Urine: Mice and food were weighed daily. Water was supplied in 50 mL conical with sipper tube as described (bio-protocol.org/e1822), and daily water intake was determined by weight. Spot urine was collected after spontaneous voiding on plastic wrap and urine osmolality measured in technical duplicate with Wescor 5500® Vapor Pressure Osmometer using lOuL urine and the average value reported each mouse. […]

[3] = Dietary Li administration in Keap1f/f mice (constitutive Nrf2 activation); assay type: in vivo
Protocol: Water and Urine: Mice and food were weighed daily. Water was supplied in 50 mL conical with sipper tube as described (bio-protocol.org/e1822), and daily water intake was determined by weight. Spot urine was collected after spontaneous voiding on plastic wrap and urine osmolality measured in technical duplicate with Wescor 5500® Vapor Pressure Osmometer using lOuL urine and the average value reported each mouse.
as §1
Consequently, Li was administered to mice with constitutive pharmacomimetic Nrf2 activation (Keap1^f/f) to test whether Nrf2 and Li induced NDI via synergistic or additive mechanisms (FIG. 3A). To our surprise, instead of exacerbating the renal toxicity of Li, activation of Nrf2 signaling conferred significant protective effects.
The duration of Li therapy in humans is on the order of months to decades. An experiment was done to evaluate if Nrf2 hyperactivation conferred long-term protection from the development of Li-NDI. 6-8 week old WT and Keap1^flox/flox mice were randomized to control or 0.17% LiCl diet for 8 months.

[4] = Nrf2-/- mice

CCCCCCCC/C(=C\CCCCCCCC(=O)O)[N+](=O)[O-] [10-nitro-9(E)-octadec-9-enoic acid]
symptoms of nephrogenic diabetes insipidus (Nrf2 [1]): reduced symptoms of nephrogenic diabetes insipidus

CC1(C)CC[C@]2(C(=O)n3ccnc3)CC[C@]3(C)[C@H](C(=O)C=C4[C@@]5(C)C=C(C#N)C(=O)C(C)(C)[C@@H]5CC[C@]43C)[C@@H]2C1 [CDDO-Im, CDDO-Imidazolide]
NQO1 expression (Nrf2 gene target NQO1; CD-10/CD-13 positive HAK cells (proximal tubule), exposure to CDDO-Im): did not further increase
elevation in NQO1 (Nrf2 gene target NQO1; MUC1 positive cells (distal tubule), exposure to CDDO-Im): 3 fold

COC(=O)[C@]12CCC(C)(C)C[C@H]1[C@H]1C(=O)C=C3[C@@]4(C)C=C(C#N)C(=O)C(C)(C)[C@@H]4CC[C@@]3(C)[C@]1(C)CC2 [CDDO-Me, Bardoxolone methyl]
food consumption (Nrf2 [2]; with LiCl diet): without impacting
increase of renal NQO1 expression (Nrf2 [2]; whole-kidney lysates): 2- to 3 fold

[Cl-].[Li+] [LiCl]
water intake (polydipsia) ([3]; Keap1f/f mice receiving Li): normodipsic
body mass change vs control diet ([3]; Keap1f/f mice receiving LiCl): no change
urine osmolality ([3]; Keap1f/f-Li cohort, day 13): 758+/−703 mOsm/kg
average daily water intake compared to WT-Ctrl ([3]; Keap1flox/flox-Li mice, 0.17% LiCl diet): no significant increase
total expression of NCC (tNCC) ([3]; kidney lysates, Keap1f/f-Li cohort): significantly reduced
NQO1 expression (Nrf2 gene target NQO1; Li 10 mM and 50 mM, Mucin 1-enriched distal tubule cells and CD10/CD13 proximal tubule cells): No increase
renal protein expression of Nrf2 gene target NQO1 (0.17% LiCl diet, 7 days): without impacting
Water intake (0.17% LiCl diet, after 4 days): significantly increased
renal expression of AQP2 (0.17% LiCl diet, by 7 days): significantly downregulated
urine osmolality (hyposthenuria) (0.17% LiCl diet, day 7, spot urine): significant hyposthenuria
Expression of NQO1 in kidney (Example 4, Li treatment): not affected
glycosylated and non-glycosylated AQP2 isoforms in kidney (Example 4, both WT and Keap1f/f groups): significantly reduced
volume status when water intake clamped to baseline intake (LiCl diet, baseline-clamped water): significant volume depletion with hypernatremia and polycythemia
renal expression of CA-II (WT animals): reduced
renal COX-1 expression (WT mice): down-regulate
renal COX-2 expression (WT mice): down-regulate
spot urine osmolality (WT-Li cohort, day 13): 359+/−192 mOsm/kg
reduction in body mass (WT-Li mice, Example 4): ~5%
plasma Li+ (both WT and Keap1f/f groups on LiCl diet): equivalently elevated
total expression of NCC (tNCC) (kidney lysates, WT-Li cohort): unchanged
Activating phosphorylation of NCC at threonine 53 (pNCC, T53) (kidney lysates, both genotypes): reduced
body weight ([4]; Li diet 6 days): slightly reduced
Food intake ([4]; first 3 days of LiCl diet): modestly suppressed
urine osmolality ([4]; spot urine, day 11): 176+/−43 mOsm/kg
